Measured values: the NIST ThermoML archive (doi:10.1021/je400159e)

Experiments:
[1] = Crystal; Adiabatic calorimetry
[2] = Molar enthalpy of transition or fusion; details: Crystal; Adiabatic calorimetry
[3] = molar heat capacity at constant pressure; details: 101.33 kPa, Vacuum adiabatic calorimetry

CCOC(=O)C(NC(C)=O)C(=O)OCC [diethyl 2-acetamidomalonate]
Details	Molar enthalpy of transition or fusion [kcal/mol]	Triple point temperature [K]
[1]	–	368.72
[2]	8.198	–

[3]
Details	molar heat capacity at constant pressure [J/K/mol]
78.24 K, Crystal	110.9
80 K, Crystal	117.6
80.92 K, Crystal	118.8
84.07 K, Crystal	125.4
85 K, Crystal	125.6
87.1 K, Crystal	128.6
90 K, Crystal	132.8
90.03 K, Crystal	132.3
92.96 K, Crystal	137.3
95 K, Crystal	139.4
95.86 K, Crystal	140.8
98.72 K, Crystal	143.3
100 K, Crystal	145.5
102.57 K, Crystal	147.5
105 K, Crystal	151
106.44 K, Crystal	151.4
109.33 K, Crystal	154.8
110 K, Crystal	156.2
112.24 K, Crystal	157.6
115 K, Crystal	161
115.17 K, Crystal	161.2
118.1 K, Crystal	164.5
120 K, Crystal	165.6
121.02 K, Crystal	167.2
123.94 K, Crystal	169.6
125 K, Crystal	170
126.84 K, Crystal	172.1
129.74 K, Crystal	174.4
130 K, Crystal	174.2
132.64 K, Crystal	176.4
135 K, Crystal	178.3
135.54 K, Crystal	179.1
138.43 K, Crystal	181.8
140 K, Crystal	182.4
141.33 K, Crystal	184
144.22 K, Crystal	186.7
145 K, Crystal	186.3
147.11 K, Crystal	188.2
149.99 K, Crystal	190.2
150 K, Crystal	190.2
153.39 K, Crystal	192.9
155 K, Crystal	194.1
157.07 K, Crystal	195.6
160 K, Crystal	197.9
160.22 K, Crystal	198.3
163.12 K, Crystal	200.2
165 K, Crystal	201.8
166.04 K, Crystal	202.4
168.95 K, Crystal	204.2
170 K, Crystal	205.6
171.83 K, Crystal	206.6
174.74 K, Crystal	208.8
175 K, Crystal	209.5
177.68 K, Crystal	211
180 K, Crystal	213.4
180.6 K, Crystal	213.6
183.5 K, Crystal	216.3
185 K, Crystal	217.3
186.43 K, Crystal	218.3
189.39 K, Crystal	219.7
190 K, Crystal	221.2
192.32 K, Crystal	222.4
195 K, Crystal	225.1
195.24 K, Crystal	225
198.14 K, Crystal	227.4
200 K, Crystal	229
201.06 K, Crystal	229.4
204.69 K, Crystal	233
205 K, Crystal	232.9
208.24 K, Crystal	235.4
210 K, Crystal	236.8
211.12 K, Crystal	237.9
214.07 K, Crystal	239.9
215 K, Crystal	240.8
216.99 K, Crystal	243.1
219.9 K, Crystal	244
220 K, Crystal	244.7
222.8 K, Crystal	246.7
225 K, Crystal	248.7
225.75 K, Crystal	249.4
228.73 K, Crystal	251.2
230 K, Crystal	252.7
231.68 K, Crystal	254.7
234.64 K, Crystal	256.9
235 K, Crystal	256.7
237.58 K, Crystal	259.4
240 K, Crystal	260.7
240.49 K, Crystal	260.9
244 K, Crystal	264.3
245 K, Crystal	264.8
247.5 K, Crystal	267.7
250 K, Crystal	268.8
250.46 K, Crystal	269.6
253.49 K, Crystal	272.7
255 K, Crystal	273
256.52 K, Crystal	275
259.52 K, Crystal	277.5
260 K, Crystal	277.2
262.52 K, Crystal	280.1
265 K, Crystal	281.4
265.5 K, Crystal	282.4
268.47 K, Crystal	283.8
270 K, Crystal	285.7
271.42 K, Crystal	286.1
274.37 K, Crystal	289.5
275 K, Crystal	290.2
277.31 K, Crystal	290.7
280 K, Crystal	294.7
280.26 K, Crystal	293.6
283.28 K, Crystal	297.4
285 K, Crystal	299.3
286.35 K, Crystal	300.4
289.39 K, Crystal	302.9
290 K, Crystal	304.1
292.4 K, Crystal	306.6
295 K, Crystal	309
295.4 K, Crystal	308.5
298.15 K, Crystal	312.2
298.4 K, Crystal	312
300 K, Crystal	314.1
301.4 K, Crystal	314.7
304.39 K, Crystal	318.4
305 K, Crystal	319.3
307.37 K, Crystal	321.4
310 K, Crystal	324.7
310.35 K, Crystal	325.7
313.32 K, Crystal	329.7
315 K, Crystal	330.4
316.34 K, Crystal	332.9
319.44 K, Crystal	336.2
320 K, Crystal	336.2
322.53 K, Crystal	340.6
325 K, Crystal	342.2
325.61 K, Crystal	343
328.68 K, Crystal	346.8
330 K, Crystal	348.5
331.74 K, Crystal	350.7
334.79 K, Crystal	354.3
335 K, Crystal	355
337.83 K, Crystal	358
340 K, Crystal	361.7
340.85 K, Crystal	362.6
343.87 K, Crystal	367.1
345 K, Crystal	368.6
372.62 K, Liquid	463.3
375 K, Liquid	465
375.92 K, Liquid	465.4
379.02 K, Liquid	467.3
380 K, Liquid	467.7
382.13 K, Liquid	468.9
385 K, Liquid	470.4
385.23 K, Liquid	470.4
388.37 K, Liquid	472.1
390 K, Liquid	472.9
391.51 K, Liquid	473.6
394.65 K, Liquid	475.2
395 K, Liquid	475.3
